# Tests used:
# Assay in all cases: radiometric filter-binding kinase assay, Kinase HotSpot
# Details in all cases: compound 0.5 µM; ATP 10 µM
# [1] = molecular target: FES (human) (UniProt P07332)
# [2] = molecular target: MAPK13 (human) (UniProt O15264)
# [3] = molecular target: STK4 (human) (UniProt Q13043)
# [4] = molecular target: ALK (human) (UniProt Q9UM73)
# [5] = molecular target: GRK6 (human) (UniProt P43250)
# [6] = molecular target: MAP2K1 (human) (UniProt Q02750)
# [7] = molecular target: STK25 (human) (UniProt O00506)
# Sequence of STK25 (human) (O00506 whole entry, looked up): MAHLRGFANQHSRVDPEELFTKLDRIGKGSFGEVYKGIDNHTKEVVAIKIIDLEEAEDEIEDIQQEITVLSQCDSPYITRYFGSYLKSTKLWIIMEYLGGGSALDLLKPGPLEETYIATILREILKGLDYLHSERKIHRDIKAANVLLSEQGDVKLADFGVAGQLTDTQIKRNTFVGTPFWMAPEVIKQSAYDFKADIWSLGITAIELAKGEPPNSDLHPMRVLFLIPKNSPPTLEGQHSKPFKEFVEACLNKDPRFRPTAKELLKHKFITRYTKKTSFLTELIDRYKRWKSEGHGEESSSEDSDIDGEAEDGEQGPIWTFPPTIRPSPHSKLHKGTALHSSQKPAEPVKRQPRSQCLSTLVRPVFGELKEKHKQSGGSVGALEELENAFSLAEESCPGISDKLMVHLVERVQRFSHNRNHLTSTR
# [8] = molecular target: RPS6KA5 KD2 (human) (UniProt O75582)
# [9] = molecular target: SIK2 (human) (UniProt Q9H0K1)
# [10] = molecular target: LTK (human) (UniProt P29376)
# [11] = molecular target: PRKD3 (human) (UniProt O94806)
# [12] = molecular target: STK16 (human) (UniProt O75716)
# [13] = molecular target: STK33 (human) (UniProt Q9BYT3)
# Sequence of STK33 (human) (Q9BYT3 whole entry, looked up): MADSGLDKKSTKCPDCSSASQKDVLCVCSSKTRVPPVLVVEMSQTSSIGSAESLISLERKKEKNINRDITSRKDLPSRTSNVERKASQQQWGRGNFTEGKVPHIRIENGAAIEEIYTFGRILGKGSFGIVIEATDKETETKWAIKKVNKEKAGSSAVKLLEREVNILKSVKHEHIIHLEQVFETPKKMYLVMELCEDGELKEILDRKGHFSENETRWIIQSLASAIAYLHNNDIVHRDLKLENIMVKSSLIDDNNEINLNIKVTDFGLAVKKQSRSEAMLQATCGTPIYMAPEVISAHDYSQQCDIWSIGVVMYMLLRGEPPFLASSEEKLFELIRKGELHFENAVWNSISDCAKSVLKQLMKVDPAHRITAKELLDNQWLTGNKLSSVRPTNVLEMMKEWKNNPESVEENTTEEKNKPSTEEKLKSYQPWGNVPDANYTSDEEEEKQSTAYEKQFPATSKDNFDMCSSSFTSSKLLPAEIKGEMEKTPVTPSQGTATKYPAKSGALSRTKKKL
# [14] = molecular target: CDK6 CCND1 (human) (UniProt Q00534+P24385)
# [15] = molecular target: NTRK2 (human) (UniProt Q16620)
# [16] = molecular target: GSG2 (human) (UniProt Q8TF76)
# [17] = molecular target: ULK2 (human) (UniProt Q8IYT8)
# [18] = molecular target: PIM3 (human) (UniProt Q86V86)
# [19] = molecular target: WEE1 (human) (UniProt P30291)
# [20] = molecular target: VRK1 (human) (UniProt Q99986)
# [21] = molecular target: PIM2 (human) (UniProt Q9P1W9)
# [22] = molecular target: FGFR1 (human) (UniProt P11362)
# [23] = molecular target: TNK2 (human) (UniProt Q07912)
# [24] = molecular target: CDK5 CDK5R1 p35 (human) (UniProt Q00535+Q15078)
# [25] = molecular target: STK17A (human) (UniProt Q9UEE5)
# [26] = molecular target: IGF1R (human) (UniProt P08069)
# [27] = molecular target: CSNK1G1 (human) (UniProt Q9HCP0)
# [28] = molecular target: MAP3K11 (human) (UniProt Q16584)
# [29] = molecular target: BRSK1 (human) (UniProt Q8TDC3)
# [30] = molecular target: NEK3 (human) (UniProt P51956)
# [31] = molecular target: PRKCA (human) (UniProt P17252)
# [32] = molecular target: AKT2 (human) (UniProt P31751)
# [33] = molecular target: NEK6 (human) (UniProt Q9HC98)
# [34] = molecular target: CDK9 CCNT1 (human) (UniProt P50750+O60563)
# Sequence of CDK9 CCNT1 (human) (O60563 whole entry, looked up): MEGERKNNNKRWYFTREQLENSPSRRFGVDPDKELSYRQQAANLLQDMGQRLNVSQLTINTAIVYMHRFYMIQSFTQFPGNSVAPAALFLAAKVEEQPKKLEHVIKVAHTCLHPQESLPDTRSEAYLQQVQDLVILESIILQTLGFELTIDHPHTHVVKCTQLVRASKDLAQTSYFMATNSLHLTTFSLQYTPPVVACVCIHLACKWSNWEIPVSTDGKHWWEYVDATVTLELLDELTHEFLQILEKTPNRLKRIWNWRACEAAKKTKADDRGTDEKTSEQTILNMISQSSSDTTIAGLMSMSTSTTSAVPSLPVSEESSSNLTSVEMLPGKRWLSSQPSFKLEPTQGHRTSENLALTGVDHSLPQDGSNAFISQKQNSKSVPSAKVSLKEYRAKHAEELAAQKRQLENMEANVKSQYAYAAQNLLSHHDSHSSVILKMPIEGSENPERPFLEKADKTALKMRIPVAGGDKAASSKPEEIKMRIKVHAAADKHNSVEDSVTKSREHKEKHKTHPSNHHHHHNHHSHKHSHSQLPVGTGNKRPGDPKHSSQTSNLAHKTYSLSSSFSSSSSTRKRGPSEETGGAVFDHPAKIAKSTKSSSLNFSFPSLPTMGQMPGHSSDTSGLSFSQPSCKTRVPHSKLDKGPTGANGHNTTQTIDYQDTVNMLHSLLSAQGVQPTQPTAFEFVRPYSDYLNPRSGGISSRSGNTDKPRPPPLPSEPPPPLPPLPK
# Sequence of CDK9 CCNT1 (human) (P50750 whole entry, looked up): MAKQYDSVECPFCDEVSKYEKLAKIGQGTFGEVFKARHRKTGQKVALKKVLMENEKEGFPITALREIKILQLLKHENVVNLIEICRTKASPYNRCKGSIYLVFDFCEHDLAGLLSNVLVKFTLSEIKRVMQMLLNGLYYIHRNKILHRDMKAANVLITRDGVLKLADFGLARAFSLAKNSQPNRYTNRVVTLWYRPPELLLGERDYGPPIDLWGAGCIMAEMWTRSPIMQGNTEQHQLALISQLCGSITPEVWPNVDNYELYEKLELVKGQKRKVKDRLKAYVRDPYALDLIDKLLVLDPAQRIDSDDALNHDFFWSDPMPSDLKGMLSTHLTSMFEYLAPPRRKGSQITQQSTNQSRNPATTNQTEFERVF
# [35] = molecular target: TAOK2 (human) (UniProt Q9UL54)
# [36] = molecular target: TSSK1B (human) (UniProt Q9BXA7)
# [37] = molecular target: RPS6KA3 KD1 KD2 (human) (UniProt P51812)
# [38] = molecular target: MAP2K2 (human) (UniProt P36507)
# [39] = tested on: FLT4 (human), P35916 [Q890H]
# [40] = molecular target: MST1R (human) (UniProt Q04912)
# [41] = molecular target: GSK3A (human) (UniProt P49840)
# [42] = molecular target: PKN2 (human) (UniProt Q16513)
# Sequence of PKN2 (human) (Q16513 whole entry, looked up): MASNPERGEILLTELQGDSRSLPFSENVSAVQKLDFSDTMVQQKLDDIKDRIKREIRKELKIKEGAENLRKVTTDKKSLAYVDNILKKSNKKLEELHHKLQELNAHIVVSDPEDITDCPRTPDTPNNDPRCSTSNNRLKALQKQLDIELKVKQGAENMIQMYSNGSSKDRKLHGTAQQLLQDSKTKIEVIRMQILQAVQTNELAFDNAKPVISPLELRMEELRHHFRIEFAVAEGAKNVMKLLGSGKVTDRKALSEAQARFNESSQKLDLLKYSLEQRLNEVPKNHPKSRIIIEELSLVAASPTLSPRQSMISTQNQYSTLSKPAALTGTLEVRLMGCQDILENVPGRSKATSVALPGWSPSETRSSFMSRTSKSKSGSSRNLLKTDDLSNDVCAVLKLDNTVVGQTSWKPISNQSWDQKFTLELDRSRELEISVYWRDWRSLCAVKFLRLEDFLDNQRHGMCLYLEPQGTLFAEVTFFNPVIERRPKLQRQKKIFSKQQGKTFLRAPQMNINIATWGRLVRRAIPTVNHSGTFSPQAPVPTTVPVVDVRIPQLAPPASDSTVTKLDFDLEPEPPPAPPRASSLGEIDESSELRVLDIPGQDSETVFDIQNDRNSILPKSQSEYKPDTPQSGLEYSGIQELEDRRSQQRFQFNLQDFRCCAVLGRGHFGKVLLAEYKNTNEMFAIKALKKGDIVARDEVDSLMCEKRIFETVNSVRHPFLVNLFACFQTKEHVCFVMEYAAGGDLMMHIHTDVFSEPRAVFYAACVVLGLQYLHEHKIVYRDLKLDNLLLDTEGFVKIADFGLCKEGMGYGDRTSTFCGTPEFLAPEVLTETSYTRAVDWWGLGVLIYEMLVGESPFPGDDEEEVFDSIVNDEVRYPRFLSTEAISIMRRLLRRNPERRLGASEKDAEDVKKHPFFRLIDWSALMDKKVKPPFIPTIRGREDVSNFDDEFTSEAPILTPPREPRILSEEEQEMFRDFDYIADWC
# Sequence of ALK (human) (Q9UM73 whole entry, looked up): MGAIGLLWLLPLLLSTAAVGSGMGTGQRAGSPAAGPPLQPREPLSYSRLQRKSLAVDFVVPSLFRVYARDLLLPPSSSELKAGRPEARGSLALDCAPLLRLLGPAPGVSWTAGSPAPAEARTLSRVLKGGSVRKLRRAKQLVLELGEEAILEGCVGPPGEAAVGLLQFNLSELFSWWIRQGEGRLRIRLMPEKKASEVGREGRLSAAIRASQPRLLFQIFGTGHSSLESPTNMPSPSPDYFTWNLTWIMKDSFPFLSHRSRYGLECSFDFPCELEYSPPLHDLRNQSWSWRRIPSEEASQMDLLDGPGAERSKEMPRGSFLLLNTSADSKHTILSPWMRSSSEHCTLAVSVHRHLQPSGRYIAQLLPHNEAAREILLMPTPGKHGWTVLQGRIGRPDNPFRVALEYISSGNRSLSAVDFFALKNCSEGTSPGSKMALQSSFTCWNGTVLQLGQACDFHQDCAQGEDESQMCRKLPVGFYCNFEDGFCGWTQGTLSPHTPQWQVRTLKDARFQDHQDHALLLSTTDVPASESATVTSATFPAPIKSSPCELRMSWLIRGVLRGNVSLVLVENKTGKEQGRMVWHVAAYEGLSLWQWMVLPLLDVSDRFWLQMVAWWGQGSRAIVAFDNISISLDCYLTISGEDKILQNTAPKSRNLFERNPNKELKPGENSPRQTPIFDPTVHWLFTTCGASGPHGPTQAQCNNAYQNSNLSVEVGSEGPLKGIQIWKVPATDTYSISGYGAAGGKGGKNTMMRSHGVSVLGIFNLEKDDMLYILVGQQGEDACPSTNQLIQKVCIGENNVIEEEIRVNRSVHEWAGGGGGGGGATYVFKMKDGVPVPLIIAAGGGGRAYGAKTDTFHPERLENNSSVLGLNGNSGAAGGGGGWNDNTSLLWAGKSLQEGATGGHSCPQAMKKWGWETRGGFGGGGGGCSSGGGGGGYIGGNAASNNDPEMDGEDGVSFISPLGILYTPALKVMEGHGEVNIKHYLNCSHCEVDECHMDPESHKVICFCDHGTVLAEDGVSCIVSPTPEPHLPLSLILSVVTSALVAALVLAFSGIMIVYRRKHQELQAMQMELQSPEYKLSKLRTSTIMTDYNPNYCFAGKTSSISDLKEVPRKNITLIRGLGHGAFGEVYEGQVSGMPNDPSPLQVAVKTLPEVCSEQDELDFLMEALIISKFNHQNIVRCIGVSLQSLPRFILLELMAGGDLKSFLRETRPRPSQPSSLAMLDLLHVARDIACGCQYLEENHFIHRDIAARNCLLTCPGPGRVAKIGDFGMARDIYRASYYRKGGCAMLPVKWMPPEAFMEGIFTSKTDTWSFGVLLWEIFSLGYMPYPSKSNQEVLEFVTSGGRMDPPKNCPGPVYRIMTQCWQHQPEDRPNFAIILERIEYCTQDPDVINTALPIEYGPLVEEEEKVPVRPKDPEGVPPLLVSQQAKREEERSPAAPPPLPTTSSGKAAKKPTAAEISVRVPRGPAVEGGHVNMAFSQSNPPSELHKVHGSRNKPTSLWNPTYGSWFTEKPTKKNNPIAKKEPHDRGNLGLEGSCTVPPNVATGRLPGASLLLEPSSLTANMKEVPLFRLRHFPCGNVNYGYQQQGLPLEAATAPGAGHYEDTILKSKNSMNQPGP
# Sequence of MAP2K1 (human) (Q02750 whole entry, looked up): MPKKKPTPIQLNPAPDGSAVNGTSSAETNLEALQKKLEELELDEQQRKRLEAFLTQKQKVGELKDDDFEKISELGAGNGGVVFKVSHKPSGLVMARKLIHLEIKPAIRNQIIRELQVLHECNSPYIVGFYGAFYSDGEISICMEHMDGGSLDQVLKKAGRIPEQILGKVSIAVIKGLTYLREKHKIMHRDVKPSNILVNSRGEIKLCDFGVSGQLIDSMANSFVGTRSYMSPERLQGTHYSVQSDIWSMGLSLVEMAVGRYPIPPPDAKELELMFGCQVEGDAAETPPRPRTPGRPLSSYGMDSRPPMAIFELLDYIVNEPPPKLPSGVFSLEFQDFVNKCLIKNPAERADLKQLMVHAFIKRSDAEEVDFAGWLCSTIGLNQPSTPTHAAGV
structure (smiles),measurement,setting,value
COc1ccc(C(=O)Nc2sc3c(c2C(N)=O)CCCC3)cc1OC,residual activity,[1],102%
same,residual activity,[2],109%
same,residual activity,[3],104%
same,residual activity,[4],66.2%
same,residual activity,[5],98.5%
same,residual activity,[6],99.1%
same,residual activity,[7],91.7%
same,residual activity,[8],105%
same,residual activity,[9],102%
same,residual activity,[10],40.5%
same,residual activity,[11],103%
same,residual activity,[12],106%
same,residual activity,[13],99.5%
same,residual activity,[14],95.1%
same,residual activity,[15],67.4%
same,residual activity,[16],82.8%
same,residual activity,[17],105%
same,residual activity,[18],109%
same,residual activity,[19],92.3%
same,residual activity,[20],95.3%
same,residual activity,[21],98.5%
same,residual activity,[22],94.8%
same,residual activity,[23],93.4%
same,residual activity,[24],90.8%
same,residual activity,[25],98.5%
same,residual activity,[26],97.7%
same,residual activity,[27],90.1%
same,residual activity,[28],96.8%
same,residual activity,[29],105%
same,residual activity,[30],95.8%
same,residual activity,[31],96.6%
same,residual activity,[32],97%
same,residual activity,[33],92.7%
same,residual activity,[34],102%
same,residual activity,[35],97%
same,residual activity,[36],115%
same,residual activity,[37],93%
same,residual activity,[38],95.3%
same,residual activity,[39],110%
same,residual activity,[40],105%
same,residual activity,[41],83.6%
same,residual activity,[42],98.5%
O=C1Nc2ccc(Br)cc2/C1=C\c1cc2c([nH]1)CCCC2,residual activity,[1],83.8%
same,residual activity,[2],100%
same,residual activity,[3],44.1%
same,residual activity,[4],88.5%
same,residual activity,[5],95.8%
same,residual activity,[6],84.8%
same,residual activity,[7],102%
same,residual activity,[8],90.3%
same,residual activity,[9],92.7%
same,residual activity,[10],70.6%
same,residual activity,[11],90.3%
same,residual activity,[12],94.3%
same,residual activity,[13],77.3%
same,residual activity,[14],90.4%
same,residual activity,[15],43.6%
same,residual activity,[16],88%
same,residual activity,[17],114%
same,residual activity,[18],87.5%
same,residual activity,[19],95.9%
same,residual activity,[20],108%
same,residual activity,[21],100%
same,residual activity,[22],76.7%
same,residual activity,[23],92.8%
same,residual activity,[24],84.6%
same,residual activity,[25],72.9%
same,residual activity,[26],74.3%
same,residual activity,[27],102%
same,residual activity,[28],16.8%
same,residual activity,[29],80.8%
same,residual activity,[30],86.7%
same,residual activity,[31],102%
same,residual activity,[32],90.3%
same,residual activity,[33],103%
same,residual activity,[34],90%
same,residual activity,[35],89.4%
same,residual activity,[36],36.1%
same,residual activity,[37],80.9%
same,residual activity,[38],92.1%
same,residual activity,[39],56.1%
same,residual activity,[40],88.3%
same,residual activity,[41],88.5%
same,residual activity,[42],91.3%
Cc1cncc2cccc(S(=O)(=O)N3CCCN(C(=O)CN)C[C@H]3C)c12,residual activity,[1],102%
same,residual activity,[2],119%
same,residual activity,[3],95.4%
same,residual activity,[4],113%
same,residual activity,[5],85.5%
same,residual activity,[6],94.9%
same,residual activity,[7],119%
same,residual activity,[8],100%
same,residual activity,[9],89.4%
same,residual activity,[10],93%
same,residual activity,[11],85.4%
same,residual activity,[12],97.9%
same,residual activity,[13],100%
same,residual activity,[14],99.8%
same,residual activity,[15],102%
same,residual activity,[16],99.4%
same,residual activity,[17],98.8%
same,residual activity,[18],103%
same,residual activity,[19],96.3%
same,residual activity,[20],102%
same,residual activity,[21],104%
same,residual activity,[22],85.7%
same,residual activity,[23],84.5%
same,residual activity,[24],97.4%
same,residual activity,[25],93.5%
same,residual activity,[26],110%
same,residual activity,[27],92.4%
same,residual activity,[28],98.4%
same,residual activity,[29],94.2%
same,residual activity,[30],91.1%
same,residual activity,[31],109%
same,residual activity,[32],97.2%
same,residual activity,[33],93.3%
same,residual activity,[34],86.7%
same,residual activity,[35],94%
same,residual activity,[36],103%
same,residual activity,[37],91.8%
same,residual activity,[38],106%
same,residual activity,[39],113%
same,residual activity,[40],99.3%
same,residual activity,[41],99.6%
same,residual activity,[42],74.7%

# Reference: the kinase profiling compilation of Christmann-Franck et al. (2016)
